Like-named read-outs stand apart in the source and are kept apart here.
What was measured:
[1] = tested on: MCF-7 cells; assay: MTT anti-proliferative assay, MCF-7; type: cell-based, human; conditions: read-out: MCF-7 IC50 ± SD
Procedure: (§1) All cell lines were purchased from Cell Bank of Shanghai Institute of Biochemistry and Cell Biology, Chinese Academy of Sciences (Shanghai, China). Human breast carcinoma cells (MCF-7 and MCF-7/DOX), breast epithelial cells (MCF-10A) and normal human liver cells (LO2) were maintained in RPMI-1640 medium. All cells were supplemented with 12% fetal bovine serum containing 50 μg/ml penicillin and 50 μg/ml streptomycin. Cells were grown to 80% confluency in a tissue culture flask at 37 °C in a humidified atmosphere containing 5% CO2, and then were trypsinized with 1 × Trypsin-Versene and split. The MCF-7/DOX cell line we used was established from its parental cell line MCF-7 cell by gradually increasing the concentration of DOX to which the cells were exposed in a stepwise manner over a period of 8 months. […] The cells were incubated in drug-free medium for at least 1 week before use.
(§2) Cells (MCF-7, MCF-7/DOX, MCF-10A, LO2) were seeded in 96-well plates at a density of 3,000–6,000 cells per well. The cells were incubated overnight (16 h) in a humidified 5% CO2 incubator at 37 °C. After media removal, different concentrations of test compounds were added in triplicate to the plates in 200 μL of fresh media and were incubated with the cells at 37 °C for 48 h. […] Cell viability was evaluated using 3-(4, 5-dimethylthiazolyl)-2,5-diphenyltetrazoliumbromide (MTT). The absorbance was read by an ELISA reader (SpectraMax Plus384, Molecular Devices, Sunnyvale, CA) at a test wavelength of 570 nm and a reference wavelength of 630 nm. Cell viability was calculated using the following formula: […]

[2] = tested on: MCF-7/DOX cells; assay: MTT anti-proliferative assay, MCF-7/DOX; type: cell-based, human; conditions: MTT, 48 h, read-out: MCF-7/DOX IC50 ± SD
Procedure: as §1, §2

COc1ccc(/C=C/C(=O)N2CCN(C(=O)C3=Cc4cc(Br)ccc4S3(=O)=O)CC2)cc1OC [Compound 6a, (E)-1-(4-(5-bromo-1,1-dioxidobenzo[b]thiophene-2-carbonyl)piperazin-1-yl)-3-(3,4-dimethoxyphenyl)prop-2-en-1-one]
IC50 ([1]; Homo sapiens, MCF7, 48 h): 0.71 ± 0.14 µM
IC50 ([2]; Homo sapiens, MCF7-DOX): 1.82 ± 0.19 µM
melting point: 244 to 246 °C

COc1cc(/C=C/C(=O)N2CCN(C(=O)C3=Cc4cc(Br)ccc4S3(=O)=O)CC2)cc(OC)c1OC [Compound 6c, (E)-1-(4-(5-bromo-1,1-dioxidobenzo[b]thiophene-2-carbonyl)piperazin-1-yl)-3-(3,4,5-trimethoxyphenyl)prop-2-en-1-one]
IC50 ([1]; Homo sapiens, MCF7, 48 h): 1.23 ± 0.08 µM
IC50 ([2]; Homo sapiens, MCF7-DOX): 0.86 ± 0.13 µM
melting point: 94 to 96 °C

COc1cc(/C=C/C(=O)N2CCN(C(=O)C3=Cc4cc(Br)ccc4S3(=O)=O)CC2)cc(OC)c1O [Compound 6d, (E)-1-(4-(5-bromo-1,1-dioxidobenzo[b]thiophene-2-carbonyl)piperazin-1-yl)-3-(4-hydroxy-3,5-dimethoxyphenyl)prop-2-en-1-one]
IC50 ([1]; Homo sapiens, MCF7, 48 h): 2.25 ± 0.35 µM
IC50 ([2]; Homo sapiens, MCF7-DOX): 2.27 ± 0.6 µM
melting point: 125 to 127 °C

O=C(/C=C/c1ccc([N+](=O)[O-])cc1)N1CCN(C(=O)C2=Cc3cc(Br)ccc3S2(=O)=O)CC1 [Compound 6e, (E)-1-(4-(5-bromo-1,1-dioxidobenzo[b]thiophene-2-carbonyl)piperazin-1-yl)-3-(4-nitrophenyl)prop-2-en-1-one]
IC50 ([1]; Homo sapiens, MCF7, 48 h): 1.18 ± 0.08 µM
IC50 ([2]; Homo sapiens, MCF7-DOX): 1.08 ± 0.14 µM
melting point: > 250 °C

O=C(/C=C/c1ccccn1)N1CCN(C(=O)C2=Cc3cc(Br)ccc3S2(=O)=O)CC1 [Compound 6f, (E)-1-(4-(5-bromo-1,1-dioxidobenzo[b]thiophene-2-carbonyl)piperazin-1-yl)-3-(pyridin-2-yl)prop-2-en-1-one]
IC50 ([1]; Homo sapiens, MCF7, 48 h): 1.08 ± 0.06 µM
IC50 ([2]; Homo sapiens, MCF7-DOX): 1.89 ± 0.27 µM
melting point: 241 to 242 °C

O=C(/C=C/c1ccc(Br)cc1)N1CCN(C(=O)C2=Cc3cc(Br)ccc3S2(=O)=O)CC1 [Compound 6g, (E)-1-(4-(5-bromo-1,1-dioxidobenzo[b]thiophene-2-carbonyl)piperazin-1-yl)-3-(4-bromophenyl)prop-2-en-1-one]
IC50 ([1]; Homo sapiens, MCF7, 48 h): 2.08 ± 0.06 µM
IC50 ([2]; Homo sapiens, MCF7-DOX): 1.18 ± 0.07 µM
melting point: > 250 °C

O=C(/C=C/c1ccc(Cl)cc1)N1CCN(C(=O)C2=Cc3cc(Br)ccc3S2(=O)=O)CC1 [Compound 6h, (E)-1-(4-(5-bromo-1,1-dioxidobenzo[b]thiophene-2-carbonyl)piperazin-1-yl)-3-(4-chlorophenyl)prop-2-en-1-one]
IC50 ([1]; Homo sapiens, MCF7, 48 h): 2.02 ± 0.2 µM
IC50 ([2]; Homo sapiens, MCF7-DOX): 0.72 ± 0.13 µM
melting point: 225 to 227 °C

O=C(/C=C/c1ccc(C(F)(F)F)cc1)N1CCN(C(=O)C2=Cc3cc(Br)ccc3S2(=O)=O)CC1 [Compound 6i, (E)-1-(4-(5-bromo-1,1-dioxidobenzo[b]thiophene-2-carbonyl)piperazin-1-yl)-3-(4-(trifluoromethyl)phenyl)prop-2-en-1-one]
IC50 ([1]; Homo sapiens, MCF7, 48 h): 0.67 ± 0.14 µM
IC50 ([2]; Homo sapiens, MCF7-DOX): 0.87 ± 0.12 µM
melting point: 245 to 247 °C

O=C(/C=C/c1ccc(F)cc1)N1CCN(C(=O)C2=Cc3cc(Br)ccc3S2(=O)=O)CC1 [Compound 6k, (E)-1-(4-(5-bromo-1,1-dioxidobenzo[b]thiophene-2-carbonyl)piperazin-1-yl)-3-(4-fluorophenyl)prop-2-en-1-one]
IC50 ([1]; Homo sapiens, MCF7, 48 h): 1.5 ± 0.18 µM
IC50 ([2]; Homo sapiens, MCF7-DOX): 2.44 ± 0.57 µM
melting point: > 250 °C

COc1ccc(/C=C/C(=O)N2CCN(C(=O)C3=Cc4ccc(Br)cc4S3(=O)=O)CC2)cc1OC [Compound 6l, (E)-1-(4-(6-bromo-1,1-dioxidobenzo[b]thiophene-2-carbonyl)piperazin-1-yl)-3-(3,4-dimethoxyphenyl)prop-2-en-1-one]
IC50 ([1]; Homo sapiens, MCF7, 48 h): 1.25 ± 0.14 µM
IC50 ([2]; Homo sapiens, MCF7-DOX): 1.77 ± 0.12 µM
melting point: 222 to 224 °C

COc1ccc(/C=C/C(=O)N2CCN(C(=O)C3=Cc4ccc(Br)cc4S3(=O)=O)CC2)cc1 [Compound 6m, (E)-1-(4-(6-bromo-1,1-dioxidobenzo[b]thiophene-2-carbonyl)piperazin-1-yl)-3-(4-methoxyphenyl)prop-2-en-1-one]
IC50 ([1]; Homo sapiens, MCF7, 48 h): 0.99 ± 0.07 µM
IC50 ([2]; Homo sapiens, MCF7-DOX): 0.38 ± 0.01 µM
melting point: 220 to 222 °C

COc1cc(/C=C/C(=O)N2CCN(C(=O)C3=Cc4ccc(Br)cc4S3(=O)=O)CC2)cc(OC)c1OC [Compound 6n, (E)-1-(4-(6-bromo-1,1-dioxidobenzo[b]thiophene-2-carbonyl)piperazin-1-yl)-3-(3,4,5-trimethoxyphenyl)prop-2-en-1-one]
IC50 ([1]; Homo sapiens, MCF7, 48 h): 2.62 ± 0.13 µM
IC50 ([2]; Homo sapiens, MCF7-DOX): 2.88 ± 0.57 µM
melting point: 81 to 85 °C

COc1cc(/C=C/C(=O)N2CCN(C(=O)C3=Cc4ccc(Br)cc4S3(=O)=O)CC2)cc(OC)c1O [Compound 6o, (E)-1-(4-(6-bromo-1,1-dioxidobenzo[b]thiophene-2-carbonyl)piperazin-1-yl)-3-(4-hydroxy-3,5-dimethoxyphenyl)prop-2-en-1-one]
IC50 ([1]; Homo sapiens, MCF7, 48 h): 2.9 ± 0.36 µM
IC50 ([2]; Homo sapiens, MCF7-DOX): 9.49 ± 2.8 µM
melting point: 112 to 114 °C

O=C(/C=C/c1ccccc1O)N1CCN(C(=O)C2=Cc3ccc(Br)cc3S2(=O)=O)CC1 [Compound 6p, (E)-1-(4-(6-bromo-1,1-dioxidobenzo[b]thiophene-2-carbonyl)piperazin-1-yl)-3-(2-hydroxy)prop-2-en-1-one]
IC50 ([1]; Homo sapiens, MCF7, 48 h): 4 ± 0.91 µM
IC50 ([2]; Homo sapiens, MCF7-DOX): 3.78 ± 0.14 µM
melting point: > 250 °C

O=C(/C=C/c1ccccn1)N1CCN(C(=O)C2=Cc3ccc(Br)cc3S2(=O)=O)CC1 [Compound 6q, (E)-1-(4-(6-bromo-1,1-dioxidobenzo[b]thiophene-2-carbonyl)piperazin-1-yl)-3-(pyridin-2-yl)prop-2-en-1-one]
IC50 ([1]; Homo sapiens, MCF7, 48 h): 1.48 ± 0.19 µM
IC50 ([2]; Homo sapiens, MCF7-DOX): 4.42 ± 0.17 µM
melting point: 97 to 99 °C

O=C(/C=C/c1ccc(Br)cc1)N1CCN(C(=O)C2=Cc3ccc(Br)cc3S2(=O)=O)CC1 [Compound 6r, (E)-1-(4-(6-bromo-1,1-dioxidobenzo[b]thiophene-2-carbonyl)piperazin-1-yl)-3-(4-bromophenyl)prop-2-en-1-one]
IC50 ([1]; Homo sapiens, MCF7, 48 h): 1.6 ± 0.13 µM
IC50 ([2]; Homo sapiens, MCF7-DOX): 2.61 ± 0.82 µM
melting point: 215 to 217 °C

O=C(/C=C/c1ccc(Cl)cc1)N1CCN(C(=O)C2=Cc3ccc(Br)cc3S2(=O)=O)CC1 [Compound 6s, (E)-1-(4-(6-bromo-1,1-dioxidobenzo[b]thiophene-2-carbonyl)piperazin-1-yl)-3-(4-chlorophenyl)prop-2-en-1-one]
IC50 ([1]; Homo sapiens, MCF7, 48 h): 1.6 ± 0.09 µM
IC50 ([2]; Homo sapiens, MCF7-DOX): 2.23 ± 0.16 µM
melting point: 225 to 227 °C

(E)-1-(4-(5-bromo-1,1-dioxidobenzo[b]thiophene-2-carbonyl)piperazin-1-yl)-3-(4-fluorophenyl)prop-2-en-1-one [Compound 6v]
IC50 ([1]; 48 h): 1.45 ± 0.17 µM
IC50 [2]: 2.14 ± 0.27 µM

(E)-1-(4-(5-bromo-1,1-dioxidobenzo[b]thiophene-2-carbonyl)piperazin-1-yl)-3-(4-hydroxy-3-methoxyphenyl)prop-2-en-1-one [Compound 6j]
IC50 ([1]; 48 h): 0.86 ± 0.09 µM
IC50 [2]: 1 ± 0.76 µM

(E)-1-(4-(6-bromo-1,1-dioxidobenzo[b]thiophene-2-carbonyl)piperazin-1-yl)-3-(3-hydroxy-4-methoxyphenyl)prop-2-en-1-one [Compound 6t]
IC50 ([1]; 48 h): 3.03 ± 0.22 µM
IC50 [2]: 2.02 ± 0.34 µM

(E)-1-(4-(6-bromo-1,1-dioxidobenzo[b]thiophene-2-carbonyl)piperazin-1-yl)-3-(4-hydroxy-3-methoxyphenyl)prop-2-en-1-one [Compound 6u]
IC50 ([1]; 48 h): 1.44 ± 0.11 µM
IC50 [2]: 0.55 ± 0.01 µM

Reference: article PMC5387716, “Discovery of monocarbonyl curcumin-BTP hybrids as STAT3 inhibitors for drug-sensitive and drug-resistant breast cancer therapy” (Scientific Reports, 2017)
